Measured values from patent publication US20120035219A1, “Compound for the Treatment of Tuberculosis” (ASTRAZENECA AB, priority 2009, published 2012).
Values after ≈ are worked out from the molar mass of the structure shown.

Assays:
Mtu H37Rv (ATCC 27294) [1] = test: MIC testing, Microplate Alamar Blue Assay; format: cell-based; settings: Mycobacterium tuberculosis
Mtu H37Rv (ATCC 27294) [2] = test: Minimum bactericidal concentration (MBC), plating on 7H10 agar; format: cell-based; settings: Mycobacterium tuberculosis; concentration giving less than 50 colonies
[3] = test system: Mtu in bone marrow derived macrophages from BALB/c mice; test: Bone marrow derived macrophages (BMDM) intracellular infection model; format: cell-based, Mycobacterium tuberculosis; settings: for BMDM (log Redn @ 8 μg/mL): 10 days drug exposure, CFU
[4] = test system: Mtu (tubercle bacilli) lung infection; test: In vivo dose-response, aerosol infection model, 4 wk efficacy; settings: BALB/c mice, oral once daily, 6 days a week for 4 weeks
[5] = Pharmacokinetic parameters in mouse; format: in vivo, BALB/c mice
Experimental: BALB/c mice (8-10 week old) were dosed with the compound in an appropriate vehicle at specified doses as a single dose at a dose volume of 10 mL/Kg. The dose was administered either orally or parentally. Blood samples were collected at various time points ranging from 0.08 h to 50 h post dosing and plasma harvested by acceptable methods like precipitation or extraction. The concentration of the compound in plasma was determined by standard analytical instruments like HPLC and/or LC-MS.
(§1) PK analyses of the plasma concentration-time relationships were performed with WinNonLin software (or any other suitable software program). A noncompartmental analysis program was used to calculate the PK parameters, such as the maximum concentration of drug in plasma (Cmax), time to Cmax(tmax), elimination rate constant, elimination half-life, and AUC from time zero to infinity (AUC0-inf)
(§2) The compounds were dosed to animals at various doses (not exceeding 25 mg/kg) and the concentration of the compound at various time points was estimated.

[6] = Pharmacokinetic parameters in rat; format: in vivo; settings: plasma; Rat (20-25 mg/kg)
Experimental: as §1, §2

[7] = Pharmacokinetic parameters in dog; format: in vivo; settings: plasma; Dog (12.5-15 mg/kg)
Experimental: as §1, §2

in vitro = settings: mouse
[8] = cited from earlier work
[9] = compared with Linezolid; cited from earlier work
[10] = cited from earlier work; remark: listed apart in the source
M. tuberculosis = settings: given orally or parenterally to experimental animals; cited from earlier work
[11] = cited from earlier work; remark: listed apart in the source
mycobacteria = settings: cited from earlier work
[12] = PPB (fraction free), mouse; settings: plasma
[13] = test system: slow growing mycobacteria; settings: cited from earlier work
[14] = BALB/c, plasma, Mouse (10 mg/kg)
[15] = mouse, at the minimum effective dose

Row | SMILES | MIC (Mtu H37Rv (ATCC 27294) [1]) [µg/mL] | MBC (Mtu H37Rv (ATCC 27294) [2]) [µg/mL] | BMDM (log Redn @ 8 μg/mL) [3] [log] | Minimum Effective Dose in a 4 wk efficacy model [4] [mg/kg] | half-life [5, 14] [h] | fAUC/MIC [5, 15] | half-life [6] [h] | half-life [7] [h] | antimycobacterial activities in the murine model (mycobacteria) | also measured
1 | O=C([C@@H](O)CO)N1CC=C(c2c(F)cc(N3C[C@H](COc4ccon4)OC3=O)cc2F)CC1 [AZD2563, (5R)-3-[4-[1-[(2S)-2,3-dihydroxypropanoyl]-3,6-dihydro-2H-pyridin-4-yl]-3,5-difluoro-phenyl]-5-(isoxazol-3-yloxymethyl)oxazolidin-2-one] | 0.5 (≈ 1.07 µM) | 2 (≈ 4.3 µM) | 1.3 | 125 | 1.3 | 54.14 | 4 to 6 | 10 | – | bactericidal activity in the intracellular infection model (BMDM) as compared to Linezolid ([3]; compared to Linezolid): greater bactericidal activity; AUC ([5]; BALB/c, mouse, in vivo): 150000 ng·h/mL; fAUC ([5]; BALB/c, mouse, in vivo): 27.07; AUC ([5]; BALB/c, mouse, in vivo, 10 mg/kg): 20300 ng·h/mL; fraction unbound (in vitro): 0.18
2 | CC(=O)NC[C@H]1CN(c2ccc(-c3ccc(-c4nnnn4C)nc3)c(F)c2)C(=O)O1 [DA-7867] | – | – | – | – | – | – | – | – | – | in vitro efficacy [8]: good in vitro; in vivo efficacy [9]: better in vivo efficacy than Linezolid; tolerability in rat toxicology studies [10]: poorly tolerated
3 | CC(=O)NC[C@H]1CN(c2ccc(C(C)=O)cc2)C(=O)O1 [DuP-721] | – | – | – | – | – | – | – | – | – | activity against M. tuberculosis (M. tuberculosis): good activity; toxicity in animal models [11]: lethal toxicity
4 | CC(=O)NC[C@H]1CN(c2ccc(N3CCOCC3)c(F)c2)C(=O)O1 [Linezolid, N—[(S)-3-(3-Fluoro-4-morpholin-4-yl-phenyl)-2-oxo-oxazolidin-5-ylmethyl]-acetamide] | 0.5 (≈ 1.48 µM) | 4 (≈ 11.9 µM) | −0.05 | 250 | 1 | 390.24 | 1.3 to 3 | 4 | promising antimycobacterial activities | AUC ([5]; BALB/c, plasma, oral, mouse, at the minimum effective dose, read-out: AUC): 279000 ng·h/mL; AUC ([5]; BALB/c, plasma, Mouse (10 mg/kg), read-out: AUC): 7300 ng·h/mL; fAUC ([5]; mouse, at the minimum effective dose, AUC x fraction free): 195.12; AUC [6]: 41600 ng·h/mL; AUC [7]: 42000 ng·h/mL; fraction unbound [12]: 0.7
5 | CC(=O)NC[C@H]1CN(c2ccc(N3CCSCC3)c(F)c2)C(=O)O1 [PNU-100480] | – | – | – | – | – | – | – | – | promising antimycobacterial activities | –
6 | CC(=O)NC[C@H]1CN(c2ccc(N3CCN(Cc4ccc([N+](=O)[O-])o4)CC3)c(F)c2)C(=O)O1 [RBx 7644] | – | – | – | – | – | – | – | – | – | antimycobacterial activity [13]: modest antimycobacterial activity
